Assay results from ChEMBL document CHEMBL4507287, “Data for DCP probe MRL-650” (2021).

Tests used:
[1] = target: Alpha-1A adrenergic receptor (Homo sapiens) (UniProt P35348); conditions: Compound concentration 10.0 uM
[2] = target: Phosphorylase b kinase regulatory subunit alpha, liver isoform (Homo sapiens) (UniProt P46019); conditions: Compound concentration 1000.0 nM
[3] = target: Serine/threonine-protein kinase TAO2 (Homo sapiens) (UniProt Q9UL54); conditions: Compound concentration 1000.0 nM
[4] = target: RAF proto-oncogene serine/threonine-protein kinase (Homo sapiens) (UniProt P04049); conditions: Compound concentration 1000.0 nM
Chain of RAF proto-oncogene serine/threonine-protein kinase (Homo sapiens) (P04049 whole entry): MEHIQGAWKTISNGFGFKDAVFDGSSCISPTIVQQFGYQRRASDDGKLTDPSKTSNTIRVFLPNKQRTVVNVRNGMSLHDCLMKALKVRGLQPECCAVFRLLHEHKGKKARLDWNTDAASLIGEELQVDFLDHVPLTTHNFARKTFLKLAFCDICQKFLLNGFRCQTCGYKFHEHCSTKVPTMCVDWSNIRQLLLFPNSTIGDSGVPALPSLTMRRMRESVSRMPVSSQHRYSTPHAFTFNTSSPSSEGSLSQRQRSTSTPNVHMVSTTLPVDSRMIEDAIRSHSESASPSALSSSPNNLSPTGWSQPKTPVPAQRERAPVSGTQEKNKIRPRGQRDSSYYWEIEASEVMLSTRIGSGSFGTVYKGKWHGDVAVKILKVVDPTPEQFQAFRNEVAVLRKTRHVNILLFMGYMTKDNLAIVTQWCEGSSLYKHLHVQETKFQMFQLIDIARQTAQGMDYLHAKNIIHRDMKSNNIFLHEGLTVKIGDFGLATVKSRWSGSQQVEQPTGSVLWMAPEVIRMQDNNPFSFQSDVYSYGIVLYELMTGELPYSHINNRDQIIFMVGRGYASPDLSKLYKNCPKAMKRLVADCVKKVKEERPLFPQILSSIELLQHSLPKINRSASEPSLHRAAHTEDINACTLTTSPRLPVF

[5] = target: Cyclin-dependent kinase-like 1 (Homo sapiens) (UniProt Q00532); conditions: Compound concentration 1000.0 nM
[6] = target: Dual specificity tyrosine-phosphorylation-regulated kinase 1B (Homo sapiens) (UniProt Q9Y463); conditions: Compound concentration 1000.0 nM
Chain of Dual specificity tyrosine-phosphorylation-regulated kinase 1B (Homo sapiens) (Q9Y463 whole entry, looked up): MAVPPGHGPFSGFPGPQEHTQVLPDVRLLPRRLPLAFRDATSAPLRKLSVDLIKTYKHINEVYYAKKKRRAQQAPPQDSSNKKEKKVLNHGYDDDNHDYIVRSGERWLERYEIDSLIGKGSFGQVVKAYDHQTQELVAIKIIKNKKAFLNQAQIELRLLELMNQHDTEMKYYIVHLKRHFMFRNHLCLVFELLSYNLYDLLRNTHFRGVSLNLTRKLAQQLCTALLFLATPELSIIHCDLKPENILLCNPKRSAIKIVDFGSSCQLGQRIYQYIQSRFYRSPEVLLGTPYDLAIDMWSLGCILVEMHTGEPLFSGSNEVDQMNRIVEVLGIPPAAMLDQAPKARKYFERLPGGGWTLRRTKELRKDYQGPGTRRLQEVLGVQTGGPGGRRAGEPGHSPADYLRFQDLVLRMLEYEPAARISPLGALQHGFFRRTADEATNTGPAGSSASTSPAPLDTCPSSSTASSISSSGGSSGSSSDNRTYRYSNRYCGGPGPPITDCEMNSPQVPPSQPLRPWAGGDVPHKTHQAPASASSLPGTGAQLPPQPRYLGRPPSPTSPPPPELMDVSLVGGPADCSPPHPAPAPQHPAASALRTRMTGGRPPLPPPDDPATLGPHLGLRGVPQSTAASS

[7] = target: Serine/threonine-protein kinase SIK1 (Homo sapiens) (UniProt P57059); conditions: Compound concentration 1000.0 nM
[8] = target: Serine/threonine-protein kinase WNK2 (Homo sapiens) (UniProt Q9Y3S1); conditions: Compound concentration 1000.0 nM
[9] = target: Serine/threonine-protein kinase LATS1 (Homo sapiens) (UniProt O95835); conditions: Compound concentration 1000.0 nM
[10] = target: Serine/threonine-protein kinase PLK3 (Homo sapiens) (UniProt Q9H4B4); conditions: Compound concentration 1000.0 nM
[11] = target: Vascular endothelial growth factor receptor 3 (Homo sapiens) (UniProt P35916); conditions: Compound concentration 1000.0 nM
Chain of Vascular endothelial growth factor receptor 3 (Homo sapiens) (P35916 whole entry): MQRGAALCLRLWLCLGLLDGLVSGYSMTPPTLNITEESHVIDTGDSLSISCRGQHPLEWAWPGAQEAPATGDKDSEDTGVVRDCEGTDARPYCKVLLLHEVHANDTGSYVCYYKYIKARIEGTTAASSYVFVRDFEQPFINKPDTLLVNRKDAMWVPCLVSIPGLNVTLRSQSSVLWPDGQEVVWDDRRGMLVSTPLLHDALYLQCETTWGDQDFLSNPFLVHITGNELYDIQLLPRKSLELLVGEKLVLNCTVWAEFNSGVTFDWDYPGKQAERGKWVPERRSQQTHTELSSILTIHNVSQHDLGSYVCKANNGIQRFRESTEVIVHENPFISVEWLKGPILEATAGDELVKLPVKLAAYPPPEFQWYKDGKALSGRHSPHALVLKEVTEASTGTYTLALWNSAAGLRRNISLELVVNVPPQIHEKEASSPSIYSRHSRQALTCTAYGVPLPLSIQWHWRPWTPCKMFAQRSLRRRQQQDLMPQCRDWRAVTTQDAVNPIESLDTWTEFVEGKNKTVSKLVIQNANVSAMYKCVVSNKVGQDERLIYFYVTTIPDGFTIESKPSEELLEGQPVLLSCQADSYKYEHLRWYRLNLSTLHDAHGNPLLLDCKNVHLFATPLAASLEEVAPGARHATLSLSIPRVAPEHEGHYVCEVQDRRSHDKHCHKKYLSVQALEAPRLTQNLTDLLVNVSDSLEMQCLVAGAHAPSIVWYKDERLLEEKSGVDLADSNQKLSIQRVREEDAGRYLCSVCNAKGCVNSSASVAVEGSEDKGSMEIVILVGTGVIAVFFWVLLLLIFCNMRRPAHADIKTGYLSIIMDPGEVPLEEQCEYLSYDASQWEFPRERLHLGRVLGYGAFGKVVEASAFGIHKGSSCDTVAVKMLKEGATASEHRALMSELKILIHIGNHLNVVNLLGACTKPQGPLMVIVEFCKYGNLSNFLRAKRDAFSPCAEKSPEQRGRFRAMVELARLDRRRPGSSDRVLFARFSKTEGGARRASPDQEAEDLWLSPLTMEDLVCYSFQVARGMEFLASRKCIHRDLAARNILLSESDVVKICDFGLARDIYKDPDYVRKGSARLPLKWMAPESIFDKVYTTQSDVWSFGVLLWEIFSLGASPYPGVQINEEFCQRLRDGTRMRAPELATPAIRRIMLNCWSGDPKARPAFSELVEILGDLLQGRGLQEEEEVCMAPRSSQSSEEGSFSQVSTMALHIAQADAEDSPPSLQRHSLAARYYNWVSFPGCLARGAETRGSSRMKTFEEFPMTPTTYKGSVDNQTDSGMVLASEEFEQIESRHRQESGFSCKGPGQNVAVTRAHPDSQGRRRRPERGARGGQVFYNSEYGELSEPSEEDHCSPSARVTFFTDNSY

[12] = target: Serine/threonine-protein kinase B-raf (Homo sapiens) (UniProt P15056); conditions: Compound concentration 1000.0 nM
[13] = target: Ribosomal protein S6 kinase alpha-2 (Homo sapiens) (UniProt Q15349); conditions: Compound concentration 1000.0 nM
[14] = target: cGMP-dependent protein kinase 2 (Homo sapiens) (UniProt Q13237); conditions: Compound concentration 1000.0 nM
[15] = target: MAP kinase-interacting serine/threonine-protein kinase 2 (Homo sapiens) (UniProt Q9HBH9); conditions: Compound concentration 1000.0 nM
[16] = target: Calcium/calmodulin-dependent protein kinase type 1G (Homo sapiens) (UniProt Q96NX5); conditions: Compound concentration 1000.0 nM
[17] = target: Serine/threonine-protein kinase MRCK beta (Homo sapiens) (UniProt Q9Y5S2); conditions: Compound concentration 1000.0 nM
[18] = tested on: Epidermal growth factor receptor (Homo sapiens), P00533 [L858R]; conditions: Compound concentration 1000.0 nM
[19] = target: Mitogen-activated protein kinase kinase kinase kinase 5 (Homo sapiens) (UniProt Q9Y4K4); conditions: Compound concentration 1000.0 nM
[20] = target: Homeodomain-interacting protein kinase 3 (Homo sapiens) (UniProt Q9H422); conditions: Compound concentration 1000.0 nM
[21] = target: Mitogen-activated protein kinase kinase kinase 10 (Homo sapiens) (UniProt Q02779); conditions: Compound concentration 1000.0 nM
[22] = target: LIM domain kinase 2 (Homo sapiens) (UniProt P53671); conditions: Compound concentration 1000.0 nM
Chain of LIM domain kinase 2 (Homo sapiens) (P53671 whole entry, looked up, the tested form may be a part): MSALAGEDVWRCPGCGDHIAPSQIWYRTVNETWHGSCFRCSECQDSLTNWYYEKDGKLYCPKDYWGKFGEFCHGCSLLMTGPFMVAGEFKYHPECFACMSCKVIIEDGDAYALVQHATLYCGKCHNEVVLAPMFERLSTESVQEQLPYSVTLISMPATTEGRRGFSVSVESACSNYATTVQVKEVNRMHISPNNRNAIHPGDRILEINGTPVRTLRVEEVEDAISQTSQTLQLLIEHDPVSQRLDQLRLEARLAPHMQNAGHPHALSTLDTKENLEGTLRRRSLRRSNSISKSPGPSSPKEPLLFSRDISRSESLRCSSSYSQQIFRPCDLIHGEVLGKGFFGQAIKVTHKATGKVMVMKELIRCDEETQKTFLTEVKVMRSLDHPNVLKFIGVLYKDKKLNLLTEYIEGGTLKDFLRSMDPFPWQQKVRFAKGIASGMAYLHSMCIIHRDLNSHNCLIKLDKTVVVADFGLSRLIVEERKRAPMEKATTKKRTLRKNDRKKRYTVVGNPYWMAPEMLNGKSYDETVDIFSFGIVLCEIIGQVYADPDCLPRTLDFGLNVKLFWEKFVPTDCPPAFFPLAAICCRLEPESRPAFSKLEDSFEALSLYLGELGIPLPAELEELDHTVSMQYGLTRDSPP

[23] = target: Cyclin-dependent kinase 8 (Homo sapiens) (UniProt P49336); conditions: Compound concentration 1000.0 nM
[24] = target: Mitogen-activated protein kinase kinase kinase 5 (Homo sapiens) (UniProt Q99683); conditions: Compound concentration 1000.0 nM
[25] = target: Receptor tyrosine-protein kinase erbB-3 (Homo sapiens) (UniProt P21860); conditions: Compound concentration 1000.0 nM
[26] = target: Dual specificity protein kinase CLK4 (Homo sapiens) (UniProt Q9HAZ1); conditions: Compound concentration 1000.0 nM
Chain of Dual specificity protein kinase CLK4 (Homo sapiens) (Q9HAZ1 whole entry, looked up): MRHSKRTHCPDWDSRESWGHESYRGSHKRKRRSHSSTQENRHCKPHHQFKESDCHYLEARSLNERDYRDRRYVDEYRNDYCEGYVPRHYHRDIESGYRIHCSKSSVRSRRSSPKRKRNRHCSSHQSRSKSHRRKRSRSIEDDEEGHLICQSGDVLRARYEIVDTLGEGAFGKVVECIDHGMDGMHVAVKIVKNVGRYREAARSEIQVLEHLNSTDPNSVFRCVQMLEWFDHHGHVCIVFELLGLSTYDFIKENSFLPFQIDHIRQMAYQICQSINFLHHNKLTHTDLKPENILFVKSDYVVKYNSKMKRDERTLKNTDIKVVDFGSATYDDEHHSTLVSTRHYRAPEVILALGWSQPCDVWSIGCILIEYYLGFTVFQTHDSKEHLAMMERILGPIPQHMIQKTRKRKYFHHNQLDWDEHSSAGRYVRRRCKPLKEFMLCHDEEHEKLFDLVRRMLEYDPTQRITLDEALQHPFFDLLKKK

[27] = target: Serine/threonine-protein kinase PAK 4 (Homo sapiens) (UniProt O96013); conditions: Compound concentration 1000.0 nM
[28] = target: Tyrosine-protein kinase ABL1 (Homo sapiens) (UniProt P00519); conditions: Compound concentration 1000.0 nM
[29] = target: Phosphatidylinositol 5-phosphate 4-kinase type-2 gamma (Homo sapiens) (UniProt Q8TBX8); conditions: Compound concentration 1000.0 nM
Chain of Phosphatidylinositol 5-phosphate 4-kinase type-2 gamma (Homo sapiens) (Q8TBX8 whole entry): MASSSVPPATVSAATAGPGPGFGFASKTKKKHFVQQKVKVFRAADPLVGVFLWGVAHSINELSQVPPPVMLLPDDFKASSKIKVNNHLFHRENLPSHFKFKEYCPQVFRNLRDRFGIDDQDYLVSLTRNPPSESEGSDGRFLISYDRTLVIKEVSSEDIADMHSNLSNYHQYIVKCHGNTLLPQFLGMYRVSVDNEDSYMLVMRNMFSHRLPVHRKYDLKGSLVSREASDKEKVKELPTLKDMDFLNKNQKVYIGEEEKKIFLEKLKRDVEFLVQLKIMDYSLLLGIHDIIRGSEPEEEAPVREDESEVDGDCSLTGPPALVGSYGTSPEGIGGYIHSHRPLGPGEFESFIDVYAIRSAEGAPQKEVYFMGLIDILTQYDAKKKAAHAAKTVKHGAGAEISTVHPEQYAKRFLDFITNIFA

[30] = target: Tyrosine-protein kinase Fgr (Homo sapiens) (UniProt P09769); conditions: Compound concentration 1000.0 nM
[31] = target: Death-associated protein kinase 1 (Homo sapiens) (UniProt P53355); conditions: Compound concentration 1000.0 nM
[32] = target: Serine/threonine-protein kinase tousled-like 2 (Homo sapiens) (UniProt Q86UE8); conditions: Compound concentration 1000.0 nM
[33] = tested on: Phosphatidylinositol 4,5-bisphosphate 3-kinase catalytic subunit alpha isoform (Homo sapiens), P42336 [I800L]; conditions: Compound concentration 1000.0 nM
[34] = target: Focal adhesion kinase 1 (Homo sapiens) (UniProt Q05397); conditions: Compound concentration 1000.0 nM
[35] = target: Serine/threonine-protein kinase pim-3 (Homo sapiens) (UniProt Q86V86); conditions: Compound concentration 1000.0 nM
[36] = target: Leukocyte tyrosine kinase receptor (Homo sapiens) (UniProt P29376); conditions: Compound concentration 1000.0 nM
[37] = target: Mitogen-activated protein kinase 3 (Homo sapiens) (UniProt P27361); conditions: Compound concentration 1000.0 nM
[38] = target: Serine/threonine-protein kinase NLK (Homo sapiens) (UniProt Q9UBE8); conditions: Compound concentration 1000.0 nM
Chain of Serine/threonine-protein kinase NLK (Homo sapiens) (Q9UBE8 whole entry): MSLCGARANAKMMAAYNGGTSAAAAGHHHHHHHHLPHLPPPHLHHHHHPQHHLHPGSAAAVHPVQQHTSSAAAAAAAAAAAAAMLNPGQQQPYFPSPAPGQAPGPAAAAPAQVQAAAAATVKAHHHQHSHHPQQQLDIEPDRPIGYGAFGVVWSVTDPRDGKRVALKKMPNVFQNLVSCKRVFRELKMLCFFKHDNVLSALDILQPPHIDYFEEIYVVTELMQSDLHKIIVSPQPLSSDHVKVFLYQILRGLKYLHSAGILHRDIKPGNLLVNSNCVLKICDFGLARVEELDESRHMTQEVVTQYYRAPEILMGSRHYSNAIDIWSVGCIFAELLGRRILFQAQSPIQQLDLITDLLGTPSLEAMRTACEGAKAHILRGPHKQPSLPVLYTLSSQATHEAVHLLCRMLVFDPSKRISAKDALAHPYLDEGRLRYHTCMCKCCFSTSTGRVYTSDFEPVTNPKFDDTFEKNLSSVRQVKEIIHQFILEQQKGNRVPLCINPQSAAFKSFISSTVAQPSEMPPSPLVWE

[39] = target: Phosphatidylinositol 4-phosphate 5-kinase type-1 gamma (Homo sapiens) (UniProt O60331); conditions: Compound concentration 1000.0 nM
[40] = target: Cyclin-dependent kinase 3 (Homo sapiens) (UniProt Q00526); conditions: Compound concentration 1000.0 nM
[41] = target: Casein kinase I isoform delta (Homo sapiens) (UniProt P48730); conditions: Compound concentration 1000.0 nM
[42] = target: Glycogen synthase kinase-3 alpha (Homo sapiens) (UniProt P49840); conditions: Compound concentration 1000.0 nM
[43] = target: Eukaryotic translation initiation factor 2-alpha kinase 1 (Homo sapiens) (UniProt Q9BQI3); conditions: Compound concentration 1000.0 nM
[44] = target: Cyclin-dependent kinase 11B (Homo sapiens) (UniProt P21127); conditions: Compound concentration 1000.0 nM
[45] = target: Calcium/calmodulin-dependent protein kinase type IV (Homo sapiens) (UniProt Q16566); conditions: Compound concentration 1000.0 nM

SMILES: CC(=O)Nc1c(C(C)=O)c(=O)n(C)c2nc(-c3ccc(Cl)cc3Cl)c(-c3ccc(Cl)cc3)cc12 [NAPHTHYRIDINONE]
- inhibition [1]: -6.63%
- residual activity [2]: 100%
- residual activity [3]: 88%
- residual activity [4]: 100%
- residual activity [5]: 100%
- residual activity [6]: 35%
- residual activity [7]: 100%
- residual activity [8]: 95%
- residual activity [9]: 98%
- residual activity [10]: 100%
- residual activity [11]: 100%
- residual activity [12]: 100%
- residual activity [13]: 100%
- residual activity [14]: 100%
- residual activity [15]: 100%
- residual activity [16]: 100%
- residual activity [17]: 100%
- residual activity [18]: 100%
- residual activity [19]: 100%
- residual activity [20]: 97%
- residual activity [21]: 100%
- residual activity [22]: 100%
- residual activity [23]: 100%
- residual activity [24]: 100%
- residual activity [25]: 100%
- residual activity [26]: 100%
- residual activity [27]: 100%
- residual activity [28]: 85%
- residual activity [29]: 100%
- residual activity [30]: 100%
- residual activity [31]: 100%
- residual activity [32]: 100%
- residual activity [33]: 58%
- residual activity [34]: 100%
- residual activity [35]: 100%
- residual activity [36]: 100%
- residual activity [37]: 100%
- residual activity [38]: 100%
- residual activity [39]: 100%
- residual activity [40]: 100%
- residual activity [41]: 100%
- residual activity [42]: 100%
- residual activity [43]: 68%
- residual activity [44]: 83%
- residual activity [45]: 100%

SMILES: CC(=O)c1c(NS(C)(=O)=O)c2cc(-c3ccc(Cl)cc3)c(-c3ccc(Cl)cc3Cl)nc2n(C)c1=O [MRL-CB1-NC]
- inhibition [1]: 28.5%
- residual activity [2]: 100%
- residual activity [3]: 97%
- residual activity [4]: 100%
- residual activity [5]: 91%
- residual activity [6]: 100%
- residual activity [7]: 100%
- residual activity [8]: 62%
- residual activity [9]: 81%
- residual activity [10]: 89%
- residual activity [11]: 100%
- residual activity [12]: 90%
- residual activity [13]: 80%
- residual activity [14]: 100%
- residual activity [15]: 75%
- residual activity [16]: 100%
- residual activity [17]: 81%
- residual activity [18]: 98%
- residual activity [19]: 100%
- residual activity [20]: 88%
- residual activity [21]: 99%
- residual activity [22]: 91%
- residual activity [23]: 83%
- residual activity [24]: 85%
- residual activity [25]: 85%
- residual activity [26]: 100%
- residual activity [27]: 92%
- residual activity [28]: 91%
- residual activity [29]: 100%
- residual activity [30]: 100%
- residual activity [31]: 80%
- residual activity [32]: 99%
- residual activity [33]: 64%
- residual activity [34]: 100%
- residual activity [35]: 100%
- residual activity [36]: 100%
- residual activity [37]: 100%
- residual activity [38]: 72%
- residual activity [39]: 100%
- residual activity [40]: 100%
- residual activity [41]: 100%
- residual activity [42]: 75%
- residual activity [43]: 83%
- residual activity [44]: 84%
- residual activity [45]: 100%
